This test concerns Human epidermal keratinocytes. Description: Formation of CE in cultured keratinocytes (amount of CE by visual observation or count under a microscope). Format: cell-based. On the set-up: key: −: No CE formation; ++: CE formation in an amount equal to that in positive control (growth medium) is observed; +++: Clearly more CE formation than in positive control (growth medium) is observed. Conditions: test substance 3% in MEM containing 0.1% bovine serum albumin, cultured 1 week. How it is done:
Human epidermal keratinocytes were cultured according to the method of Rheinwald & Green (Cell 6: 331-344, 1975). The cells were cultured in a growth medium (DMEM-Ham's F12 (3:1) containing 10% fetal bovine serum, 0.5 μg/ml hydrocortisone, 5 μg/ml insulin, 10^−10 M cholera toxin, 10 ng/ml epidermal growth factor and 1.8×10^−4 M adenine) up to confluent, the medium was replaced with a medium (MEM containing 0.1% bovine serum albumin) containing a test substance, and culturing was continued for further 1 week. After completion of the culturing, Tris-hydrochloric acid buffer containing dithiothreitol and sodium dodecyl sulfate was added, and the mixture was heated at 100° C. for 10 minutes. The insoluble substance was collected by centrifugation at 4,000 g for 10 minutes. The eluent addition and heating were repeated and thereby soluble components were thoroughly removed. The thus obtained insoluble substance was referred to as CE. The amount of the obtained CE was evaluated by visual observation. Otherwise, the number was counted under a microscope using a cytometer.

For `CC(C)CCCC(C)CCCC(C)CCCCC(C)CCCC(C)CCCC(C)C` (stereo not shown) [Squalane], the CE formation-accelerating effect entry is “−”.

The values above are taken from US20030072816A1, “Agents improving skin barrier function” (priority 2000, published 2003).
